Data on 78 compounds can be found in the METLIN SMRT retention time set (Domingo-Almenara et al. 2019).

The series in a line: gradient 5% acetonitrile 3 min, to 50% in 2 min, to 85% in 15 min, held 3 min, 100 µL/min. The settings on record: column: Zorbax Extend-C18 2.1 x 50 mm; eluents: water / acetonitrile, 0.1% formic acid. An outline of the steps: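 Values are retention times taken from adduct peaks that software picked and an analyst inspected. The pure standards were run as mixtures of ~100 molecules on HPLC linked to a quadrupole time-of-flight mass spectrometer, in positive and negative ionization mode. A Zorbax Extend-C18 column (2.1 × 50 mm, 1.8 μm) was used at 100 μL/min with water and acetonitrile, each including 0.1% formic acid.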
In the case of `CCCn1cc(C(=O)NCCN(C)C)c(S(=O)(=O)N2CCN(c3ccc(Cl)cc3)CC2)n1`, the RP-LC retention time was found to be 730 s. In the case of `Cc1ccc(CN2C(=O)COC[C@H]2C(=O)Nc2ccc3c(c2)OCCO3)cc1`, the RP-LC retention time amounted to 780 s.

In turn, `Cc1cc(-c2nnc(C3CCC3)o2)c(C)n1CC(=O)NCc1ccc2c(c1)OCO2` gave an RP-LC retention time of 816 s. Take `CCOc1ccc(-c2cn3ccn(-c4ccc(C)c(C)c4)c(=O)c3n2)cc1`: the RP-LC retention time came to 949 s. Under `Clc1ccc(-c2nc(NCc3cccs3)c3ccccc3n2)cc1` stands 842 s. With `Cc1ccc(Cl)cc1N(C)S(=O)(=O)c1cc2n(c1)CCCN(C)C2=O`, the RP-LC retention time turned out to be 794 s. `CCCN1C(=O)COc2ccc(-c3noc(C4CC(=O)N(c5ccc(C)cc5)C4)n3)cc21` (stereo not drawn): the RP-LC retention time turned out to be 941 s. Under `Cc1nnc(C2CCCCCN2C(=O)c2cnco2)o1` (stereo not drawn) stands 618 s; under `Cc1ccc(CN(C(=O)COc2cc(C)c(Cl)c(C)c2)C2CCS(=O)(=O)C2)o1` (stereo not drawn), 1030 s. As to `COC(=O)c1cc(S(=O)(=O)N2CCCC2C(=O)Nc2cccc3ccccc23)cn1C` (stereo not drawn), the RP-LC retention time came out at 916 s. The compound `Cc1c(S(=O)(=O)NC2CC2)c(C)n(C)c1-c1nnc(C2CCC2)o1` gave an RP-LC retention time of 787 s. `CCOc1ccccc1CNC(=O)c1ccc2[nH]c3c(c2c1)CN(C(C)=O)CC3` gave an RP-LC retention time of 649 s.

Take `Cc1cc(C)nc(NS(=O)(=O)c2ccc(Nc3nc(-c4ccc(C(C)C)cc4)cs3)cc2)n1`: the RP-LC retention time was determined as 1120 s. Under `O=C(Nc1ccccc1)C1CCN(S(=O)(=O)c2cc(-c3noc(C4CC4)n3)cs2)CC1` stands 1020 s. Take `O=c1c2cc(-c3ccccc3)nn2ccn1Cc1noc(CN2CCCCCCC2)n1`: the RP-LC retention time turned out to be 705 s. For `Cn1ncc(N2CCC(C(=O)Nc3ccccc3)C2)cc1=O` (stereo not drawn), the RP-LC retention time came to 648 s. In turn, `CCOC(=O)C1CCN(S(=O)(=O)c2cc(-c3nc(C(C)(C)C)cs3)cs2)CC1` yielded an RP-LC retention time of 1310 s.

Consider `O=C(Nc1ccc(N2CCN(c3ccccc3)C2=O)nc1)c1ccc(F)c(F)c1`, for which the RP-LC retention time was 989 s. The compound `Cc1ccc(NC(=O)C2CCCN(S(=O)(=O)c3cn(C(C)C)cn3)C2)cc1C` (stereo not drawn) returned an RP-LC retention time of 829 s. On to `COc1ccc2c(c1)C1(CCN(C(=O)Nc3cccc(C)c3)C1)C(=O)N2C` (stereo not drawn), for which the RP-LC retention time was 809 s.

In turn, `COCCn1c(C2CCN(S(=O)(=O)c3ccc(Cl)cc3)C2)nc2cccnc21` (stereo not drawn) yielded an RP-LC retention time of 806 s. Under `O=C(NCC1CCCO1)C1CCCN(c2ccnc(-c3ccccc3)n2)C1` (stereo not drawn) stands 571 s.

For `CCC(=O)N1c2ccccc2CC1c1nc(C(C)C)no1` (stereo not drawn), the RP-LC retention time was determined as 913 s. The same measure for `COc1cc(-c2nc3ccccn3c2Nc2ccccc2C)ccc1O`: 650 s; for `CCOC(=O)Cn1c(C2CC(=O)N(c3ccccc3Cl)C2)nc2ccccc21` (stereo not drawn): 761 s; for `CCOC(=O)c1cccc(NC(=O)Cn2c(C)nc3c(sc4nc(-c5ccccc5)ccc43)c2=O)c1`: 1090 s. In turn, `O=C(Nc1ccc(N2CCN(Cc3ccc(F)cc3)C2=O)nc1)c1ccsc1` gave an RP-LC retention time of 787 s. Consider `CC(C)(C)NC(=O)C1CCN(S(=O)(=O)c2cc(-c3noc(C4CCC4)n3)cs2)CC1`, for which the RP-LC retention time amounted to 1030 s. As to `c1ccc(-c2nc(-c3ccc(-n4cccn4)nc3)no2)cc1`, the RP-LC retention time stood at 1200 s. Under `Cc1cc(-c2csc(S(=O)(=O)N3CCN(C(c4ccccc4)c4ccccc4)CC3)c2)on1` stands 1200 s; under `CC(C)C(=O)N1CCc2cc(-c3ccc(C(=O)NCCN4CCN(C)CC4)cc3)ccc21`, 608 s; under `Cc1cc(C)cc(NC(=O)N2CCN(CCn3c(-c4ccncc4)nc4cccnc43)CC2)c1`, 627 s. Turning to `Cc1cccc(CNC(=O)C2CCCN(S(=O)(=O)c3cn(C(C)C)cn3)C2)c1` (stereo not drawn), the RP-LC retention time came to 781 s. Compound `CCN1CCN(c2cc(C)c3cc(NC(=O)/C=C/c4ccc(OCCC(C)C)cc4)ccc3n2)CC1` came in with an RP-LC retention time of 747 s. Regarding `Cc1cc(C)n(Cc2nc(-c3ccc(NC(=O)Cc4ccc(Cl)cc4)cc3)oc2C)n1`, the RP-LC retention time turned out to be 997 s. The compound `Cc1cccc(C)c1Nc1c(-c2ccc(N(C)C)cc2)nc2ncccn12` showed an RP-LC retention time of 747 s. The compound `COc1ccc(-c2nnc(-c3ccc(Cl)c(S(=O)(=O)N4CCCCC4)c3)o2)cc1OC` came in with an RP-LC retention time of 1070 s. The same measure for `COc1cc(Cl)c(C)cc1NC(=O)C1CCCN(c2nc3ccccc3nc2OC)C1` (stereo not drawn): 1380 s. As to `CCOc1ccc(-n2c(=O)c3sccc3n(Cc3nc(-c4cccc(C)c4)no3)c2=O)cc1`, the RP-LC retention time came out at 1100 s. Regarding `CC1=NS(=O)(=O)N(Cc2ccccc2)C=C1C(=O)OCc1ccccc1C`, the RP-LC retention time was found to be 1170 s. Under `CC(C)C(NC(=O)Nc1ccc(F)cc1)C(=O)N1CCc2ccccc21` (stereo not drawn) stands 960 s. The same measure for `Cc1ccc(NC(=O)CN2C(=O)CCc3cc(S(=O)(=O)N4CCCCC4C)ccc32)cc1N(C)C` (stereo not drawn): 676 s. On to `Cc1cc(Cl)ccc1OCC(=O)Nc1nc(-c2ccc(Br)cc2)cs1`, for which the RP-LC retention time was 1310 s. Take `COc1ccc(-c2cc(C(=O)Nc3ccc(F)cc3)nn2C2CCS(=O)(=O)C2)cc1` (stereo not drawn): the RP-LC retention time is 930 s. In turn, `O=C(NCC(c1ccc2c(c1)OCO2)N1CCOCC1)C(=O)Nc1ccc(F)cc1F` (stereo not drawn) registered an RP-LC retention time of 675 s. `COc1ccccc1-c1noc(C2CCCN2C(=O)NC2CCCCC2)n1` (stereo not drawn) gave an RP-LC retention time of 858 s. In turn, `COc1cccc(-n2c(N3CCC(C(=O)NC4CC4)CC3)nc3ccsc3c2=O)c1` registered an RP-LC retention time of 682 s.

`O=C(C1CC1)N1CCN(c2ccc(=O)n(-c3cccc(Cl)c3)n2)CC1` came in with an RP-LC retention time of 738 s. Compound `Cc1cc(C)c(CNC(=O)c2ccc(NC(=O)C3CC3)cc2N2CCOCC2)c(C)c1` had an RP-LC retention time of 901 s. In turn, `O=C(Nc1cccc(Br)c1)N1CCc2nc[nH]c2C1` had an RP-LC retention time of 614 s. Regarding `O=C(NCc1cccc(Br)c1)c1nc(Cn2c(=O)oc3ccccc32)no1`, the RP-LC retention time stood at 895 s. The same measure for `CC(=O)N[C@@H](Cc1c[nH]c2ccccc12)C(=O)OCc1cc(C(F)(F)F)cc(C(F)(F)F)c1`: 1100 s; for `COc1ccc(OC)c(CNC(=O)c2c(N3CCCC3=O)c3cc(F)ccc3n2C)c1`: 904 s. `COc1ccc(C(=O)N2c3nc(-c4ccccc4)nn3C3(CCCCC3)[C@@H]3CCCC[C@@H]32)cc1OC` showed an RP-LC retention time of 1420 s. For `CC1(C)[C@@H]2CC[C@@]1(C(=O)O)C(=O)C2`, the RP-LC retention time was found to be 717 s. The compound `O=C(Nc1nnc(Cc2ccccc2)s1)C1CCN(C(=O)c2cccc(F)c2)CC1` yielded an RP-LC retention time of 798 s. Compound `COc1ccc(N2CCN(Cc3nc4ccccc4[nH]c3=O)CC2)cc1` returned an RP-LC retention time of 614 s.

In the case of `CCn1cc(C(=O)Nc2cccc(C)c2)c2cccnc21`, the RP-LC retention time worked out at 857 s. `CCC(CC)NC(=O)[C@@H]1[C@H](c2cc(OC)c(OC)c(OC)c2)c2cc3c(cc2[C@H](O)[C@H]1CO)OCO3` had an RP-LC retention time of 692 s. Under `CC(C)[C@H](C(=O)Nc1ccc(C(=O)NO)cc1)c1ccccc1` stands 791 s; under `COC[C@@H]1CN(c2cnccn2)C[C@H]1C(=O)NCC#N`, 546 s. Under `Cc1ccc(NC(=O)c2cn3c(n2)CCCC3)c(C)c1` stands 644 s; under `CCc1nc2c(NC(=O)NCc3ccccc3)cccn2n1`, 778 s; under `COC(=O)CNC(=O)c1sc2ncccc2c1-n1cccc1`, 736 s. Regarding `CCc1ccc(CNC(=O)C2CCCN(c3nnc(C)c4c(C)n(-c5ccccc5)nc34)C2)cc1` (stereo not drawn), the RP-LC retention time came out at 795 s.

The compound `Cc1cc(NC(=O)Nc2ccc3nc(N4CCN(C)CC4)cc(C)c3c2)ccc1Br` came in with an RP-LC retention time of 642 s.

`Cc1ccc(-c2noc(-c3ccc4c(c3)OCCO4)n2)cc1` gave an RP-LC retention time of 1250 s. For `O=C(O)c1ccc(N2CCN(c3ccccn3)CC2)c(NS(=O)(=O)c2cc(F)ccc2F)c1`, the RP-LC retention time was 640 s.

Take `COc1ccc(-c2ccnc3nc(-c4ccccc4OC)nn23)c(F)c1`: the RP-LC retention time amounted to 872 s. `Cc1cc(C)n2nc(-c3ccccc3)c(C)c2n1` returned an RP-LC retention time of 906 s.

The compound `COc1ccc(-c2c(C(=O)N(C)Cc3ccco3)nc3ccccn23)cc1` had an RP-LC retention time of 698 s.

In turn, `Cn1c(C(=O)Nc2ccc3c(c2)OCCO3)cc2c(=O)oc3ccccc3c21` gave an RP-LC retention time of 910 s. The same measure for `C=C1C(=O)OC2CC(C)C3(O)CCC(=O)C3(C)CC12` (stereo not drawn): 775 s; for `O=C(NCc1ccccc1F)C1CCCN(c2nnc3ccc(C(F)(F)F)cn23)C1` (stereo not drawn): 781 s. `COc1ccc(NC(=O)CCNc2cnc3cnccn23)cc1F` yielded an RP-LC retention time of 589 s. `O=C(O)c1cnc(N2CCOCC2)nc1-c1cccnc1` came in with an RP-LC retention time of 569 s. Under `O=C(O)C1CCN(S(=O)(=O)C2CC2)CC1` stands 585 s; under `CCCCNC(=O)C1CCC(=O)N(c2ccc(OC)cc2)C1c1ccc(OC)cc1` (stereo not drawn), 756 s.
